Reference: PubChem BioAssay AID1845205 (Molecular Pharmacology Branch, DTP, NCI, 2023)

Tested on: MPNST multicellular tumor spheroids, viability % test/control
Assay: Anticancer human tumor MPNST cell line growth inhibition;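 further: spheroids exposed to agents for seven days after three days of growth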;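 on viability, T/C: luminescence signal used as surrogate for viable cell amount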
Conditions: for IC50: curve of first compound; for viability, T/C: stronger effect = lower value
Excerpt: Multicellular complex tumor spheroid response to DNA repair inhibitors in combination with DNA-damaging drugs
This study explores the anticancer activities of DNA-damaging drugs and inhibitors of DNA damage repair, both as single agents and in combinations. Complex tumor spheroids comprised of malignant cells, endothelial cells and mesenchymal stem cells served as an in vitro model for human solid tumors. This model system incorporates physiologically relevant features and patient-derived or established malignant cell lines with clinically relevant genetic alterations from many tumor types. Twenty-six patient-derived or established malignant cell lines were evaluated representing sarcoma, melanoma, small cell lung cancer (SCLC), non-small cell lung cancer (NSCLC), as well as bladder, ovarian and pancreatic cancers. The concentration ranges selected for each drug and investigational agent were based upon clinically achievable concentrations if the clinical Cmax of the agent was known.
Compounds. The drugs and compounds olaparib (NSC753686), talazoparib (NSC767125), berzosertib (NSC777718), elimusertib (NSC800525), nedisertib (NSC802822), VX-984 (NSC792969), AZD-1390 (NSC803789), temozolomide (NSC362856), topotecan (NSC609699), trabectedin (NSC813783), staurosporine (NSC755774), and gemcitabine (NSC613327) were obtained from the National Cancer Institute (NCI) Developmental Therapeutics Program Chemical Repository. The FDA-approved anticancer drug set is available from the Developmental Therapeutics Program at https://dtp.cancer.gov/organization/dscb/obtaining/available_plates.htm. […] The stock solutions were prepared in dimethyl sulfoxide (DMSO, Sigma-Aldrich, St. Louis, MO, cat. D2650) at 400-fold the tested concentration and stored at -70 degrees C. Prior to their use, the stock solutions were diluted in fresh medium and the final DMSO concentration in the assay was 0.25% (v/v). All drugs and investigational agents were tested over a range starting from a high concentration at or near the clinical Cmax and decreasing in half-log increments. If the clinical Cmax for an agent had not been determined, the highest concentration tested was 10 microM.
Cell Lines. The patient-derived cancer cell (PDC) lines: 156681-154-R-J1-PDC, 283228-195-R-J1-PDC, 287954-098-R-J1-PDC, 292921-168-R-J2-PDC, 349418-098-R-PDC, 425362-245-T-J1-PDC, 556581-035-R-J1-PDC, and BL0293-F563-PDC were received from the NCI Patient-Derived Models Repository (PDMR, https://pdmr.cancer.gov). The established cell lines HS-SY-2 (RRID:CVCL_8719), MPNST, and SYO-1 (RRID:CVCL_7146) were obtained from the Sloan Kettering Institute. The alveolar soft parts sarcoma cell line ASPS-1 (RRID:CVCL_S738) was established at the NCI and grown from internal seed stocks. The following established cell lines were purchased from the American Type Culture Collection (ATCC, Manassas, VA): G-401 (ATCC, cat. CRL-1441, RRID:CVCL_0270), SW982 (ATCC, cat. HTB-93, RRID:CVCL_1734), VA-ES-BJ (ATCC, cat. CRL-2138, RRID:CVCL_1785), NCI-H719 (ATCC, cat. CRL-5837, RRID:CVCL_1582), NCI-H196 (ATCC, cat. CRL-5823, RRID:CVCL_1509), NCI-H841 (ATCC, cat. CRL-5845, RRID:CVCL_1595), NCI-H1618 (ATCC, cat. CRL-5879, RRID:CVCL_1480), NCI-H1876 (ATCC, cat. CRL-5902, RRID:CVCL_1503), DMS 114 (ATCC, cat. CRL-2066; RRID:CVCL_1174), NCI-H211 (ATCC, cat. CRL-5824; RRID:CVCL_1529), and SW 1271 (ATCC, cat. CRL-2177, RRID:CVCL_1716). The small cell lung cancer cell line COR-L88 was purchased from Sigma-Aldrich (cat. 92031917-1VL, RRID:CVCL_1141). The non-small cell lung cancer cell lines NCI-H226 (RRID:CVCL_1544) and NCI-H322M (RRID:CVCL_1557) were established at the NCI and grown from internal seed stocks. Pooled donor human umbilical vein endothelial cells (HUVEC, Lonza, cat. CC-2519) and human mesenchymal stem cells (hMSC, Lonza, cat. PT-2501) were purchased from Lonza (Walkersville, MD).
Cell Culture. All cells were maintained in an incubator at 37 degrees C and 5% CO2 with 95% humidity. […]

In the case of `Cn1ncnc1[C@H]1c2n[nH]c(=O)c3cc(F)cc(c23)N[C@@H]1c1ccc(F)cc1` + CC[C@@]1(O)C(=O)OCc2c1cc1n(c2=O)Cc2cc3c(CN(C)C)c(O)ccc3nc2-1, the IC50 (second compound 0.003 µM) is reported as greater than 3 µM, the IC50 (second compound 0.00949 µM) is reported as greater than 3 µM and the IC50 (second compound 0.03 µM) is reported as greater than 3 µM. It also gave an IC50 (second compound 0.0949 µM) greater than 3 µM, an IC50 (second compound 0.3 µM) of less than 0.00949 µM and a viability, T/C (second compound 0.003 µM, first compound 0.00949 µM) of 90.6%. The viability, T/C (second compound 0.003 µM, first compound 0.03 µM) was 77.2%, the viability, T/C (second compound 0.003 µM, first compound 0.0949 µM) was 72.3% and the viability, T/C (second compound 0.003 µM, first compound 0.3 µM) was 68.7%. It also gave a viability, T/C (second compound 0.003 µM, first compound 0.949 µM) of 62.2%, a viability, T/C (second compound 0.003 µM, first compound 3 µM) of 60.1% and a viability, T/C (second compound 0.00949 µM, first compound 0.00949 µM) of 65%. It also gave a viability, T/C (second compound 0.00949 µM, first compound 0.03 µM) of 65.6%, a viability, T/C (second compound 0.00949 µM, first compound 0.0949 µM) of 60.5% and a viability, T/C (second compound 0.00949 µM, first compound 0.3 µM) of 63.9%. It also gave a viability, T/C (second compound 0.00949 µM, first compound 0.949 µM) of 59.4%, a viability, T/C (second compound 0.00949 µM, first compound 3 µM) of 59.9% and a viability, T/C (second compound 0.03 µM, first compound 0.00949 µM) of 56.7%. The viability, T/C (second compound 0.03 µM, first compound 0.03 µM) was 59%, the viability, T/C (second compound 0.03 µM, first compound 0.0949 µM) was 61.1% and the viability, T/C (second compound 0.03 µM, first compound 0.3 µM) was 59.7%. For the same molecule, the viability, T/C (second compound 0.03 µM, first compound 0.949 µM) was 64%, the viability, T/C (second compound 0.03 µM, first compound 3 µM) was 61.1% and the viability, T/C (second compound 0.0949 µM, first compound 0.00949 µM) was 59.7%. The viability, T/C (second compound 0.0949 µM, first compound 0.03 µM) was 55.8%, the viability, T/C (second compound 0.0949 µM, first compound 0.0949 µM) was 58.8% and the viability, T/C (second compound 0.0949 µM, first compound 0.3 µM) was 61.6%. The viability, T/C (second compound 0.0949 µM, first compound 0.949 µM) was 59.1%, the viability, T/C (second compound 0.0949 µM, first compound 3 µM) was 55.6% and the viability, T/C (second compound 0.3 µM, first compound 0.00949 µM) was 49.5%. The viability, T/C (second compound 0.3 µM, first compound 0.03 µM) was 48.5%, the viability, T/C (second compound 0.3 µM, first compound 0.0949 µM) was 49.2% and the viability, T/C (second compound 0.3 µM, first compound 0.3 µM) was 52.7%. The viability, T/C (second compound 0.3 µM, first compound 0.949 µM) was 53% and the viability, T/C (second compound 0.3 µM, first compound 3 µM) was 46.3%.
In the case of `COc1cc(C)[nH]c(=O)c1CN1CCc2c(Cl)cc(C(OC)C3COC3)c(Cl)c2C1=O` (stereo not given) + COc1cc2c(cc1O)CCNC21CSC2c3c(OC(C)=O)c(C)c4c(c3C(COC1=O)N1C(O)C3Cc5cc(C)c(OC)c(O)c5C(C21)N3C)OCO4, the IC50 (second compound 30 pM) is reported as greater than 10 µM, the IC50 (second compound 94.9 pM) is reported as greater than 10 µM and the IC50 (second compound 0.0003 µM) is reported as greater than 10 µM. For the same molecule, the IC50 (second compound 0.000949 µM) was less than 0.0316 µM, the IC50 (second compound 0.003 µM) was less than 0.0316 µM and the viability, T/C (second compound 30 pM, first compound 0.0316 µM) was 73.7%. For the same molecule, the viability, T/C (second compound 30 pM, first compound 0.1 µM) was 77.4%, the viability, T/C (second compound 30 pM, first compound 0.316 µM) was 74.5% and the viability, T/C (second compound 30 pM, first compound 1 µM) was 84.8%. For the same molecule, the viability, T/C (second compound 30 pM, first compound 3.16 µM) was 81%, the viability, T/C (second compound 30 pM, first compound 10 µM) was 90.3% and the viability, T/C (second compound 94.9 pM, first compound 0.0316 µM) was 94.7%. It also gave a viability, T/C (second compound 94.9 pM, first compound 0.1 µM) of 78.4%, a viability, T/C (second compound 94.9 pM, first compound 0.316 µM) of 86.4% and a viability, T/C (second compound 94.9 pM, first compound 1 µM) of 77.5%. It also gave a viability, T/C (second compound 94.9 pM, first compound 3.16 µM) of 83.2%, a viability, T/C (second compound 94.9 pM, first compound 10 µM) of 69.9% and a viability, T/C (second compound 0.0003 µM, first compound 0.0316 µM) of 79%. It also gave a viability, T/C (second compound 0.0003 µM, first compound 0.1 µM) of 68.8%, a viability, T/C (second compound 0.0003 µM, first compound 0.316 µM) of 91.7% and a viability, T/C (second compound 0.0003 µM, first compound 1 µM) of 82.5%. The viability, T/C (second compound 0.0003 µM, first compound 3.16 µM) was 69.8%, the viability, T/C (second compound 0.0003 µM, first compound 10 µM) was 60.6% and the viability, T/C (second compound 0.000949 µM, first compound 0.0316 µM) was 47.6%. For the same molecule, the viability, T/C (second compound 0.000949 µM, first compound 0.1 µM) was 46%, the viability, T/C (second compound 0.000949 µM, first compound 0.316 µM) was 45.3% and the viability, T/C (second compound 0.000949 µM, first compound 1 µM) was 42.8%. For the same molecule, the viability, T/C (second compound 0.000949 µM, first compound 3.16 µM) was 42.6%, the viability, T/C (second compound 0.000949 µM, first compound 10 µM) was 45.4% and the viability, T/C (second compound 0.003 µM, first compound 0.0316 µM) was 9.08%. For the same molecule, the viability, T/C (second compound 0.003 µM, first compound 0.1 µM) was 11.7%, the viability, T/C (second compound 0.003 µM, first compound 0.316 µM) was 12.8% and the viability, T/C (second compound 0.003 µM, first compound 1 µM) was 5.61%. It also gave a viability, T/C (second compound 0.003 µM, first compound 3.16 µM) of 7.75% and a viability, T/C (second compound 0.003 µM, first compound 10 µM) of 6.1%.
